Measurements taken from ChEMBL document CHEMBL1201862, “PubChem BioAssay data set” (2004).
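How tested: cells in 96-well plates exposed to compound for 48 hours at five concentrations. GI50 is the concentration that inhibits growth by half.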 Active and inactive are the calls of the source. Rule as the data show it: active = GI50 up to about 1.1 µM and inactive = higher.

Assays:
Assay in all cases: DTP human tumour cell line panel, 48 h
RXF 393 = test system: RXF 393
PC-3 = test system: PC-3
CCRF-CEM = test system: CCRF-CEM
SNB-19 = test system: SNB-19
CAKI-1 = test system: CAKI-1
T47D = test system: T47D
OVCAR-8 = test system: OVCAR-8
MDA-N = test system: MDA-N
COLO 205 = test system: COLO 205
MDA-MB-231 = test system: MDA-MB-231
MDA-MB-435 = test system: MDA-MB-435
EKVX = test system: EKVX
OVCAR-5 = test system: OVCAR-5
MCF7 = test system: MCF7
786-0 = test system: 786-0
HL-60 = test system: HL-60
Hs-578T = test system: Hs-578T
OVCAR-4 = test system: OVCAR-4
HCC 2998 = test system: HCC 2998

Row | Structure (SMILES) | GI50 (RXF 393) | GI50 (PC-3) | GI50 (CCRF-CEM) | GI50 (SNB-19) | GI50 (CAKI-1) | GI50 (T47D) | GI50 (OVCAR-8) | GI50 (MDA-N) | GI50 (COLO 205) | GI50 (MDA-MB-231) | GI50 (MDA-MB-435) | GI50 (EKVX) | GI50 (OVCAR-5) | GI50 (MCF7) | GI50 (786-0) | GI50 (HL-60) | GI50 (Hs-578T) | GI50 (OVCAR-4) | GI50 (HCC 2998)
1 | CSc1ncnc2c1ncn2CC(=O)C1CCC2C3CCC4=CC(=O)CCC4(C)C3CCC12C (stereo not drawn) | 12 µM (inactive) | 2.57 µM (inactive) | 0.729 µM (active) | 19.2 µM (inactive) | 10 µM (inactive) | 1.91 µM (inactive) | 3.53 µM (inactive) | 3.07 µM (inactive) | 3.41 µM (inactive) | 6.64 µM (inactive) | 2.96 µM (inactive) | 5.55 µM (inactive) | 23.9 µM (inactive) | 3.08 µM (inactive) | 11 µM (inactive) | 0.28 µM (active) | 19.1 µM (inactive) | 3.49 µM (inactive) | –
2 | O=C(NNC(=S)Nc1ccccc1)c1cc(-c2ccccc2)nc2ccccc12 | 19 µM (inactive) | 18.6 µM (inactive) | 12.4 µM (inactive) | 22.8 µM (inactive) | 30.1 µM (inactive) | 7.4 µM (inactive) | 22.3 µM (inactive) | 18.2 µM (inactive) | 15.7 µM (inactive) | 20.1 µM (inactive) | 16.5 µM (inactive) | – | 18.1 µM (inactive) | 21.4 µM (inactive) | 15.8 µM (inactive) | – | 25.1 µM (inactive) | 17.3 µM (inactive) | 15.5 µM (inactive)
3 | CC(C)[S+]1C2=C(CC(C)(C)CC2=O)[N-]c2ccccc21 (stereo not drawn) | > 100 µM (inactive) | > 100 µM (inactive) | > 100 µM (inactive) | > 100 µM (inactive) | > 100 µM (inactive) | > 100 µM (inactive) | > 100 µM (inactive) | > 100 µM (inactive) | > 100 µM (inactive) | > 100 µM (inactive) | > 100 µM (inactive) | > 100 µM (inactive) | > 100 µM (inactive) | > 100 µM (inactive) | > 100 µM (inactive) | – | > 100 µM (inactive) | > 100 µM (inactive) | > 100 µM (inactive)
4 | COC(=O)CCc1ccc2c(c1)CC1(C2)Cc2ccc(CCC(=O)OC)cc2C1 | > 100 µM (inactive) | > 100 µM (inactive) | 15.6 µM (inactive) | – | – | 58.2 µM (inactive) | 60.1 µM (inactive) | > 100 µM (inactive) | 57.5 µM (inactive) | 89.9 µM (inactive) | > 100 µM (inactive) | > 100 µM (inactive) | > 100 µM (inactive) | 48.6 µM (inactive) | > 100 µM (inactive) | 17.1 µM (inactive) | > 100 µM (inactive) | 53.3 µM (inactive) | > 100 µM (inactive)
5 | CC(C)=NN/C(=N\c1ccc(Cl)cc1)NS(=O)(=O)c1ccc(Oc2cccc(Cl)c2C#N)cc1 | – | > 100 µM (inactive) | > 100 µM (inactive) | > 100 µM (inactive) | > 100 µM (inactive) | > 100 µM (inactive) | > 100 µM (inactive) | > 100 µM (inactive) | > 100 µM (inactive) | > 100 µM (inactive) | > 100 µM (inactive) | > 100 µM (inactive) | > 100 µM (inactive) | > 100 µM (inactive) | > 100 µM (inactive) | > 100 µM (inactive) | > 100 µM (inactive) | > 100 µM (inactive) | –
6 | COC(=O)C1(C)CCC(c2ccc(C)cc2)=C(CC(=O)O)C1 (stereo not drawn) | > 100 µM (inactive) | > 100 µM (inactive) | – | > 100 µM (inactive) | – | > 100 µM (inactive) | > 100 µM (inactive) | > 100 µM (inactive) | > 100 µM (inactive) | > 100 µM (inactive) | > 100 µM (inactive) | > 100 µM (inactive) | > 100 µM (inactive) | > 100 µM (inactive) | > 100 µM (inactive) | > 100 µM (inactive) | > 100 µM (inactive) | > 100 µM (inactive) | –
7 | COC(c1ccc(C(C)(C)C)cc1)(c1ccc(C(C)(C)C)cc1)c1ccc(C(C)(C)C)cc1 | – | > 100 µM (inactive) | > 100 µM (inactive) | > 100 µM (inactive) | > 100 µM (inactive) | > 100 µM (inactive) | > 100 µM (inactive) | > 100 µM (inactive) | > 100 µM (inactive) | > 100 µM (inactive) | > 100 µM (inactive) | > 100 µM (inactive) | > 100 µM (inactive) | > 100 µM (inactive) | > 100 µM (inactive) | > 100 µM (inactive) | > 100 µM (inactive) | > 100 µM (inactive) | > 100 µM (inactive)
8 | Cc1cccc(N2C(=O)C3c4[nH]c5ccccc5c4C4CCC(C(C)(C)C)CC4C3C2=O)c1 (stereo not drawn) | 12.4 µM (inactive) | 12.4 µM (inactive) | 8.57 µM (inactive) | 13.2 µM (inactive) | 13.1 µM (inactive) | 26.5 µM (inactive) | 3.5 µM (inactive) | 15.3 µM (inactive) | 11.9 µM (inactive) | 9.53 µM (inactive) | 15.2 µM (inactive) | 14.4 µM (inactive) | 16.8 µM (inactive) | 12 µM (inactive) | 3.63 µM (inactive) | 46.3 µM (inactive) | 9.98 µM (inactive) | 12.9 µM (inactive) | –
9 | CSc1ccc(C=C2N=C(c3ccccc3)N(c3cc(C(=O)c4ccccc4)ccc3N3C(=O)/C(=C/c4ccc(SC)cc4)N=C3c3ccccc3)C2=O)cc1 | – | 40 µM (inactive) | 5.69 µM (inactive) | > 100 µM (inactive) | 56.1 µM (inactive) | 34.5 µM (inactive) | 39.4 µM (inactive) | 93.1 µM (inactive) | 56.9 µM (inactive) | 80.5 µM (inactive) | 31.8 µM (inactive) | > 100 µM (inactive) | > 100 µM (inactive) | > 100 µM (inactive) | 69.3 µM (inactive) | 8.04 µM (inactive) | 52.7 µM (inactive) | 40 µM (inactive) | 46 µM (inactive)
10 | COc1ccc(-c2nc(N)c(C#N)c3c2CCS(=O)(=O)c2ccc(C)cc2-3)cc1OC | – | 11.9 µM (inactive) | – | 27.5 µM (inactive) | 27 µM (inactive) | 39.1 µM (inactive) | 74.3 µM (inactive) | 11.7 µM (inactive) | 27.8 µM (inactive) | 28.6 µM (inactive) | 15.1 µM (inactive) | – | 19.6 µM (inactive) | – | 29 µM (inactive) | – | 24.6 µM (inactive) | 25.8 µM (inactive) | 27.6 µM (inactive)
11 | CCN(CC)C(=S)SS(=O)(=O)c1ccc(Cl)cc1 | 17.6 µM (inactive) | – | – | 38.3 µM (inactive) | 19.8 µM (inactive) | 46.2 µM (inactive) | 16.9 µM (inactive) | 36.1 µM (inactive) | 26.5 µM (inactive) | 34.9 µM (inactive) | 20.5 µM (inactive) | > 100 µM (inactive) | 44 µM (inactive) | – | 29.9 µM (inactive) | – | 43.5 µM (inactive) | 45.5 µM (inactive) | > 100 µM (inactive)
12 | CN(C)CCCn1c2ccccc2c2cnccc21 | 57.4 µM (inactive) | 32.3 µM (inactive) | 45.7 µM (inactive) | 44.9 µM (inactive) | 38.7 µM (inactive) | 70.8 µM (inactive) | 55.3 µM (inactive) | 25.2 µM (inactive) | 14.6 µM (inactive) | 30.8 µM (inactive) | 28.3 µM (inactive) | 36.1 µM (inactive) | 38.4 µM (inactive) | 35.2 µM (inactive) | 27.7 µM (inactive) | 23.6 µM (inactive) | 42.7 µM (inactive) | 39.6 µM (inactive) | –
13 | COC(=O)c1ccccc1/C=C1\Cc2c(ccc3c2CCC3)C1=O | > 100 µM (inactive) | > 100 µM (inactive) | > 100 µM (inactive) | > 100 µM (inactive) | > 100 µM (inactive) | > 100 µM (inactive) | 78.9 µM (inactive) | > 100 µM (inactive) | > 100 µM (inactive) | – | > 100 µM (inactive) | > 100 µM (inactive) | > 100 µM (inactive) | > 100 µM (inactive) | 70 µM (inactive) | > 100 µM (inactive) | > 100 µM (inactive) | > 100 µM (inactive) | > 100 µM (inactive)
14 | Cc1ccc(O)c(-c2cc(-c3cccc(Cl)c3)c(C#N)c(N)n2)c1 | 19.3 µM (inactive) | 23.3 µM (inactive) | 24.4 µM (inactive) | – | 29.4 µM (inactive) | 29.9 µM (inactive) | 31 µM (inactive) | 14.5 µM (inactive) | 15.7 µM (inactive) | 20.7 µM (inactive) | 13.9 µM (inactive) | 14 µM (inactive) | 24 µM (inactive) | 13.5 µM (inactive) | 20.4 µM (inactive) | 36.1 µM (inactive) | 22.7 µM (inactive) | 15.9 µM (inactive) | –
15 | CCc1n[nH]c(=O)n1N1C(=O)C2CC=CCC2C1=O (stereo not drawn) | > 100 µM (inactive) | > 100 µM (inactive) | > 100 µM (inactive) | > 100 µM (inactive) | > 100 µM (inactive) | > 100 µM (inactive) | > 100 µM (inactive) | > 100 µM (inactive) | > 100 µM (inactive) | > 100 µM (inactive) | > 100 µM (inactive) | > 100 µM (inactive) | > 100 µM (inactive) | > 100 µM (inactive) | > 100 µM (inactive) | – | > 100 µM (inactive) | > 100 µM (inactive) | > 100 µM (inactive)
16 | CC(C)CCCC(C)[C@H]1CC[C@H]2n3c(nc4ccccc43)CCC[C@]12C (stereo partly drawn) | 16.4 µM (inactive) | 18.6 µM (inactive) | 18.3 µM (inactive) | 19.4 µM (inactive) | 17.1 µM (inactive) | 15.4 µM (inactive) | 17.1 µM (inactive) | 16.2 µM (inactive) | 11.1 µM (inactive) | 16 µM (inactive) | 19.3 µM (inactive) | – | – | 14.2 µM (inactive) | 17.5 µM (inactive) | 13.6 µM (inactive) | 26.9 µM (inactive) | 16 µM (inactive) | –
